The text below walks through data of PubChem BioAssay AID1259333 (Broad Institute, 2017).

Values joined by “and” are separate entries in the source; they are usually repeats but may differ in a detail not shown here. Equal values may be shown once. Active and inactive are the calls of the source. How the calls were made is not given here; tested in parental BL2 cells.

A short description of this experiment: cell cytotoxicity, dose response, cytotoxicity control, CellTiter-Glo (AID 1259333).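 Further: 0% = vehicle neutral controls and -100% = reference inhibitor positive controls.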 Particulars: cytotoxicity, CellTiter-Glo ATP luminescence. (Cellular ATP, detected with luciferase, serves as a proxy for viable cell number.)

Consider `COc1ccc(S(=O)(=O)Nc2ccc3c(c2)C(=O)N([C@@H](C)CO)C[C@@H](C)[C@@H](CN(C)Cc2ccc(C(F)(F)F)cc2)OCCCC[C@@H](C)O3)cc1`, for which the activity change, negative = cytotoxicity (at 10 µM (top of the series)) was -20.6% (inactive).
Same read-out and setting: for `CCc1cc2c(COC(=O)c3cc(S(=O)(=O)N4CCOCC4)ccc3F)cc(=O)oc2cc1O` the value was 64% (inactive).
For the molecule `CC(=O)[C@]1(O)Cc2c(O)c3c(c(O)c2[C@@H](O[C@H]2C[C@H](N)[C@H](O)[C@H](C)O2)C1)C(=O)c1ccccc1C3=O`, the activity change, negative = cytotoxicity (at 10 µM (top of the series)) was -5.56% (inactive).
On to `O=C(c1ccc(F)cc1)N1C[C@@H]2N[C@H](C1)C2c1ccc(/C=C/c2ccccc2)cc1` (stereo partly specified), for which, for the setting “at 10 µM (top of the series)”, the activity change, negative = cytotoxicity is 12.7% (inactive) and 35.5% (inactive).
Turning to `O=C1C[C@H](c2ccccc2)C(=O)N[C@@H](c2ccccc2)C/C=C\C[C@@H](c2ccccc2)N1`, the activity change, negative = cytotoxicity (at 10 µM (top of the series)) is 72.2% (inactive).
Consider `O=C(/C=C/c1cccs1)c1ccc(N2CCOCC2)cc1`, for which, for the setting “at 10 µM (top of the series)”, the activity change, negative = cytotoxicity is 23.6% (inactive).
On the same count and under the same terms, for `Cc1ccc(P(=O)(CSC(=N)N)c2ccc(C)cc2)cc1` the value was -36.8% (inactive).
Still for that read-out and setting: for `CCCCCCCCCc1ccc(OCCOCCOCCOCCOCCOCCOCCOCCOCCO)cc1` the value was 13.3% (inactive); for `CCN1C(=O)C(CC(=O)Nc2ccc(OC)cc2)N(CCc2ccc(F)cc2)C1=S` (stereo unspecified), 24.7% (inactive).
Take `COc1ccc(C(=O)CCN2CCc3cc(OC)c(OC)cc3C2)cc1`: the activity change, negative = cytotoxicity (at 10 µM (top of the series)) was 22.2% (inactive).
Regarding `C[C@@H]1CN([C@@H](C)CO)C(=O)Cc2cc(NS(=O)(=O)c3ccc(F)cc3)ccc2O[C@H]1CN(C)Cc1ccc(C(F)(F)F)cc1`, the activity change, negative = cytotoxicity (at 10 µM (top of the series)) was 20.6% (inactive).
Turning to `CCc1cnc(N2[C@H](C#N)[C@H](c3ccc(C#CCC4CCCC4)cc3)[C@@H]2CO)s1`, the activity change, negative = cytotoxicity (at 10 µM (top of the series)) was 56.6% (inactive).
Consider `CC[C@@]1(O)C(=O)OCc2c1cc1n(c2=O)Cc2cc3cc(O)ccc3nc2-1`, for which the activity change, negative = cytotoxicity (at 10 µM (top of the series)) is 12.3% (inactive).
As to `C[C@H](CO)N1C[C@H](C)[C@@H](CN(C)Cc2ccc(Cl)c(Cl)c2)OCCCC[C@H](C)Oc2ccc(NS(=O)(=O)c3cccs3)cc2C1=O`, the activity change, negative = cytotoxicity (at 10 µM (top of the series)) is 9.11% (inactive).
The same measure, in the same setting: next, `Cc1csc(NC(=O)c2ccc(N3CCCC3=O)cc2)n1`: 23.5% (inactive).
In the case of `CC1CC(C)CC(C)C(O)C(C#N)=CC=CCC(C2CCCC2C(=O)O)OC(=O)CC(O)C(C)C1` (stereo unspecified), the activity change, negative = cytotoxicity (at 10 µM (top of the series)) was -8.2% (inactive).
The same measure, in the same setting: next, `c1ccc(-c2nnc(-c3ccccn3)nn2)nc1`: 22.8% (inactive).
`C[C@H](CO)N1C[C@H](C)[C@H](CN(C)CC2CCCCC2)Oc2ccc(NC(=O)Nc3ccc(C(F)(F)F)cc3)cc2C1=O`: the activity change, negative = cytotoxicity (at 3.5 µM (top of the series)) was 32.8% (inactive).
`CCc1cnc(N2[C@H](C#N)[C@@H](c3ccc(C#CC(C)C)cc3)[C@H]2CO)s1`: the activity change, negative = cytotoxicity (at 10 µM (top of the series)) was 10.7% (inactive).
`CCOc1ccc(OCc2cccc(C(=O)N3CCOCC3)c2)cc1`: the activity change, negative = cytotoxicity (at 10 µM (top of the series)) was 42% (inactive).
Still for that read-out and setting: next, `COc1ccc(C=Cc2ccc3ccccc3n2)c(OC)c1`: 26.9% (inactive).
Still for that read-out and setting: for `Cc1ccc2nc(-c3cc(-c4ccccc4)no3)cn2c1` the value was 51.5% (inactive).
Take `C[C@@H]1CN([C@H](C)CO)C(=O)c2c(c3ccccc3n2C)-c2ccccc2CO[C@H]1CN(C)C(=O)Nc1ccccc1C(F)(F)F`: the activity change, negative = cytotoxicity (at 10 µM (top of the series)) is -16.3% (inactive).
On the same count and under the same terms, for `COc1ccc(C#Cc2ccc([C@@H]3[C@H](CO)N4CCCCN(C(=O)Nc5cccc(F)c5)C[C@@H]34)cc2)cc1` the value was 50.4% (inactive); for `COC1=CC(=O)c2c(ccc3ncnc(N)c23)C1=O`, 44.6% (inactive).
On the same count and under the same terms, for `O=C(C#Cc1ccccc1)c1ccccc1` the value was 43.8% (inactive).
